13 compounds from PubChem BioAssay (NCI) can be followed below.

Among the test systems are SK-MEL-2 melanoma; SNB-75 CNS; NCI-H226 lung; SK-OV-3 ovarian; K-562 leukemia; MALME-3M melanoma; SNB-19 CNS; HCT-15 colon; HT29 colon; TK-10 renal; RXF 393 renal; COLO 205 colon; NCI-H460 lung; OVCAR-4 ovarian; MDA-MB-435; MCF7 breast.
Common to all, as to experiment: growth of human tumour cells (NCI), 48 h

Where “and” joins values, the source holds several entries; their conditions need not be identical. Equal values may be shown once.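 Tested at 5 concentrations; 48 h exposure; 96-well plates; endpoints linearly interpolated, else capped at highest concentration. At the TGI there is no net growth.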 A value given as a limit tells only on which side of the number the result lay.

Turning to `CC(C)=NOC(=O)CNC(=O)C(Cc1ccccc1)NC(=O)C(C)NC(=O)OC(C)(C)C` (stereo not drawn), the TGI in the experiment with SK-MEL-2 melanoma, with SNB-75 CNS, in the experiment with NCI-H226 lung, in the experiment with SK-OV-3 ovarian, in the experiment on K-562 leukemia and in the experiment on MALME-3M melanoma was > 100 µM each time. The TGI in the experiment on SNB-19 CNS, in the experiment on HCT-15 colon, with HT29 colon, in the experiment with TK-10 renal, in the experiment on RXF 393 renal and in the experiment with COLO 205 colon was > 100 µM each time. For the same compound, the TGI with NCI-H460 lung, with OVCAR-4 ovarian, with MDA-MB-435 and in the experiment with MCF7 breast was > 100 µM in each case.

Take `CC1(C)OCC(C2OC3OC(C)(C)OC3C2c2ccccc2)O1` (stereo not drawn): the TGI was 64.8 µM in the experiment with SK-MEL-2 melanoma; > 100 µM in the experiment on SNB-75 CNS; 93.6 µM in the experiment on NCI-H226 lung; > 100 µM in the experiment on SK-OV-3 ovarian; > 100 µM in the experiment with K-562 leukemia; > 100 µM in the experiment on MALME-3M melanoma. Moreover, the TGI is > 100 µM in the experiment on SNB-19 CNS; > 100 µM with HCT-15 colon; > 100 µM with HT29 colon; > 100 µM in the experiment on TK-10 renal; > 100 µM in the experiment with RXF 393 renal; 54 µM with COLO 205 colon. Also, the TGI with NCI-H460 lung is > 100 µM; with OVCAR-4 ovarian it was > 100 µM; in the experiment with MDA-MB-435, 93.5 µM; with MCF7 breast, > 100 µM.

Take `Cc1cccc2[nH]c3c(c(O)cc4[nH]c5cccc(C)c5c(=O)c43)c(=O)c12`: the TGI with SK-MEL-2 melanoma, in the experiment with SNB-75 CNS, with NCI-H226 lung, in the experiment with SK-OV-3 ovarian, in the experiment on K-562 leukemia and in the experiment on MALME-3M melanoma was > 10 µM in each case. The TGI with SNB-19 CNS, with HCT-15 colon, in the experiment with HT29 colon, in the experiment with TK-10 renal, in the experiment with RXF 393 renal and in the experiment with COLO 205 colon was > 10 µM throughout. Besides, the TGI with NCI-H460 lung, with OVCAR-4 ovarian, in the experiment on MDA-MB-435 and with MCF7 breast was > 10 µM in each case.

As to `CCC(=O)N/S(=N/S(=O)(=O)c1ccccc1)C(Cl)(Cl)Cl` (stereo not drawn), the TGI in the experiment on SK-MEL-2 melanoma, with SNB-75 CNS, with NCI-H226 lung, in the experiment on SK-OV-3 ovarian, with K-562 leukemia and in the experiment with MALME-3M melanoma was > 100 µM throughout. For the same compound, the TGI in the experiment on SNB-19 CNS, with HCT-15 colon, in the experiment with HT29 colon, in the experiment on TK-10 renal, in the experiment on RXF 393 renal and in the experiment on COLO 205 colon was > 100 µM throughout. Moreover, the TGI in the experiment on NCI-H460 lung, in the experiment with OVCAR-4 ovarian, in the experiment on MDA-MB-435 and with MCF7 breast was > 100 µM in each case.

Turning to `CC(Oc1ccc(Oc2cnc3ccc(Cl)cc3n2)cc1)C(=O)O` (stereo not drawn), the TGI with SK-MEL-2 melanoma was > 100 µM; in the experiment on SNB-75 CNS it was > 100 µM; in the experiment with NCI-H226 lung, > 100 µM and 33.2 µM; in the experiment with SK-OV-3 ovarian it was > 100 µM; in the experiment with K-562 leukemia it was > 100 µM; with MALME-3M melanoma, > 100 µM. In addition, the TGI with SNB-19 CNS, in the experiment on HCT-15 colon, in the experiment on HT29 colon, in the experiment with TK-10 renal, in the experiment on RXF 393 renal and in the experiment on COLO 205 colon was > 100 µM throughout. For the same compound, the TGI in the experiment with NCI-H460 lung, in the experiment with OVCAR-4 ovarian, in the experiment with MDA-MB-435 and in the experiment on MCF7 breast was > 100 µM throughout.

Turning to `CC(O)c1cc2c(s1)C(=O)c1c(C(C)O)csc1C2=O` (stereo not drawn), the TGI was found to be 0.292 µM in the experiment on SK-MEL-2 melanoma; 0.566 µM in the experiment with SNB-75 CNS; 0.959 µM in the experiment with NCI-H226 lung; 1.76 µM in the experiment on SK-OV-3 ovarian; 0.616 µM with K-562 leukemia; 0.115 µM with MALME-3M melanoma. Also, the TGI in the experiment on SNB-19 CNS was 1.08 µM; in the experiment on HCT-15 colon, 0.422 µM; in the experiment with HT29 colon, 2.7 µM; with TK-10 renal it was 1.79 µM; in the experiment with RXF 393 renal, 0.656 µM; with COLO 205 colon it was 2.58 µM. In addition, the TGI in the experiment on NCI-H460 lung is 0.148 µM; in the experiment on OVCAR-4 ovarian it was 0.524 µM; with MDA-MB-435, 0.183 µM; in the experiment with MCF7 breast it was > 100 µM.

On to `O=[N+]([O-])C(/C(Cl)=C(\Cl)Br)=C(/Cl)SCc1ccccc1`, for which the TGI with SK-MEL-2 melanoma was found to be 18.1 µM; in the experiment with SNB-75 CNS it was 13.5 µM; with NCI-H226 lung it was 36.7 µM; in the experiment with SK-OV-3 ovarian, 33.7 µM; in the experiment with K-562 leukemia, 4.12 µM; in the experiment with MALME-3M melanoma, 18.7 µM. Further, the TGI in the experiment on SNB-19 CNS came out at 38.8 µM; in the experiment with HCT-15 colon, 8.53 µM; in the experiment on HT29 colon it was 5.54 µM; in the experiment on TK-10 renal it was 10.8 µM; in the experiment with RXF 393 renal it was 4.85 µM; with COLO 205 colon, 4.86 µM. In addition, the TGI with NCI-H460 lung is 30.5 µM; in the experiment with OVCAR-4 ovarian, 11.4 µM; in the experiment on MDA-MB-435 it was 3.79 µM; in the experiment on MCF7 breast, 11.2 µM.

Turning to `Nc1[nH]c(=O)nc2snnc12`, the TGI with SK-MEL-2 melanoma is 14.4 µM; with SNB-75 CNS it was > 100 µM; in the experiment with NCI-H226 lung, > 100 µM; in the experiment with SK-OV-3 ovarian it was > 100 µM; in the experiment with K-562 leukemia, > 39.7 µM; in the experiment with MALME-3M melanoma it was > 100 µM. For the same compound, the TGI in the experiment on SNB-19 CNS is > 100 µM; in the experiment on HCT-15 colon, > 100 µM; in the experiment on HT29 colon, > 100 µM; in the experiment with TK-10 renal it was > 83.9 µM; in the experiment with RXF 393 renal it was > 26.8 µM; with COLO 205 colon, > 100 µM. Also, the TGI with NCI-H460 lung, in the experiment with OVCAR-4 ovarian, in the experiment on MDA-MB-435 and in the experiment on MCF7 breast was > 100 µM in each case.

In the case of `N#Cc1c(Cl)c2cccnc2n2c1nc1ccccc12`, the TGI in the experiment on SK-MEL-2 melanoma turned out to be 23.3 µM; with SNB-75 CNS, 15.4 µM; with NCI-H226 lung, 9.58 µM; with SK-OV-3 ovarian, 30 µM; with K-562 leukemia, 6.05 µM; in the experiment on MALME-3M melanoma it was 3.28 µM. Also, the TGI with SNB-19 CNS was 38.5 µM; in the experiment on HCT-15 colon, 3.82 µM; in the experiment with HT29 colon, 3.61 µM; with TK-10 renal, 3.09 µM; in the experiment on RXF 393 renal, 3.44 µM; in the experiment on COLO 205 colon it was 4.02 µM. The TGI in the experiment on NCI-H460 lung is 19.6 µM; in the experiment on OVCAR-4 ovarian, 5.29 µM; in the experiment on MDA-MB-435, 13.5 µM; in the experiment on MCF7 breast it was > 25.1 µM.

Regarding `O=c1[nH]nc(-c2ccccc2)n1/N=C/c1cccc([N+](=O)[O-])c1`, the TGI in the experiment on SK-MEL-2 melanoma, in the experiment with SNB-75 CNS, in the experiment on NCI-H226 lung, in the experiment with SK-OV-3 ovarian, with K-562 leukemia and in the experiment with MALME-3M melanoma was > 100 µM throughout. The TGI with SNB-19 CNS, in the experiment on HCT-15 colon, with HT29 colon, in the experiment with TK-10 renal, in the experiment with RXF 393 renal and with COLO 205 colon was > 100 µM each time. In addition, the TGI in the experiment with NCI-H460 lung, in the experiment on OVCAR-4 ovarian, in the experiment on MDA-MB-435 and with MCF7 breast was > 100 µM each time.

With `O=[N+]([O-])c1ccc(C2ON=C(c3ccccc3)N2C23CC4CC(CC(C4)C2)C3)cc1` (stereo not drawn), the TGI in the experiment on SK-MEL-2 melanoma, in the experiment on SNB-75 CNS, with NCI-H226 lung, in the experiment on SK-OV-3 ovarian, in the experiment with K-562 leukemia and in the experiment with MALME-3M melanoma was > 10 µM throughout. The TGI in the experiment with SNB-19 CNS, with HCT-15 colon, in the experiment on HT29 colon, in the experiment on TK-10 renal, in the experiment with RXF 393 renal and with COLO 205 colon was > 10 µM throughout. The TGI with NCI-H460 lung, with OVCAR-4 ovarian, in the experiment on MDA-MB-435 and in the experiment with MCF7 breast was > 10 µM in each case.

With `COc1cc(/C=C2\C[C@H]3[C@@H]4CCC5=CC(=O)CC[C@]5(C)[C@H]4CC[C@]3(C)C2=O)cc(OC)c1OC`, the TGI in the experiment with SK-MEL-2 melanoma was > 59.8 µM; with SNB-75 CNS it was > 89.4 µM; in the experiment on NCI-H226 lung, > 100 µM; in the experiment on SK-OV-3 ovarian it was > 100 µM; with K-562 leukemia, > 100 µM; in the experiment with MALME-3M melanoma it was > 100 µM. Further, the TGI was > 100 µM with SNB-19 CNS; > 100 µM with HCT-15 colon; > 100 µM with HT29 colon; > 100 µM with TK-10 renal; > 100 µM with RXF 393 renal; > 60.6 µM in the experiment on COLO 205 colon. The TGI in the experiment on NCI-H460 lung is > 100 µM; in the experiment with OVCAR-4 ovarian, > 59.7 µM; in the experiment with MDA-MB-435, > 39.4 µM; in the experiment on MCF7 breast, > 100 µM.

For `O=C1NC(Nc2ccccc2)=N/C1=C\c1c(Cl)cccc1Cl`, the TGI in the experiment on SK-MEL-2 melanoma was 49 µM; with SNB-75 CNS it was 42.3 µM; with NCI-H226 lung, 41.6 µM; in the experiment on SK-OV-3 ovarian, 49.7 µM; in the experiment on K-562 leukemia it was > 100 µM; with MALME-3M melanoma, 56.5 µM. The TGI is > 100 µM in the experiment on SNB-19 CNS; > 100 µM in the experiment with HCT-15 colon; > 100 µM in the experiment on HT29 colon; 47.2 µM in the experiment with TK-10 renal; 45.3 µM with RXF 393 renal; > 100 µM in the experiment with COLO 205 colon. Besides, the TGI in the experiment on NCI-H460 lung was > 100 µM; in the experiment with OVCAR-4 ovarian it was 25.5 µM; with MDA-MB-435 it was > 100 µM; in the experiment on MCF7 breast it was 56 µM.
